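Step 1: Grow cells in 96-well plates. Step 2: Expose to compound for 48 hours at 5 concentrations. Step 3: Interpolate endpoints linearly; if unreached, use highest concentration. TGI: concentration producing complete growth inhibition.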
Key:
Assay in all cases: NCI-60 cell line screen, 48 h
SN12C renal = tested on: SN12C renal
SK-MEL-2 melanoma = tested on: SK-MEL-2 melanoma
TK-10 renal = tested on: TK-10 renal
UACC-257 melanoma = tested on: UACC-257 melanoma
KM20L2 colon = tested on: KM20L2 colon
SK-MEL-28 melanoma = tested on: SK-MEL-28 melanoma
M14 melanoma = tested on: M14 melanoma
RPMI-8226 leukemia = tested on: RPMI-8226 leukemia
COLO 205 colon = tested on: COLO 205 colon
HCC-2998 colon = tested on: HCC-2998 colon
HT29 colon = tested on: HT29 colon
LOX IMVI melanoma = tested on: LOX IMVI melanoma
NCI-H460 lung = tested on: NCI-H460 lung
CAKI-1 renal = tested on: CAKI-1 renal
SK-MEL-5 melanoma = tested on: SK-MEL-5 melanoma
DU-145 prostate = tested on: DU-145 prostate
HS 578T breast = tested on: HS 578T breast
MCF7 breast = tested on: MCF7 breast
PC-3 prostate = tested on: PC-3 prostate
BT-549 breast = tested on: BT-549 breast

SMILES	TGI (SN12C renal) [µM]	TGI (SK-MEL-2 melanoma) [µM]	TGI (TK-10 renal) [µM]	TGI (UACC-257 melanoma) [µM]	TGI (KM20L2 colon) [µM]	TGI (SK-MEL-28 melanoma) [µM]	TGI (M14 melanoma) [µM]	TGI (RPMI-8226 leukemia) [µM]	TGI (COLO 205 colon) [µM]	TGI (HCC-2998 colon) [µM]	TGI (HT29 colon) [µM]	TGI (LOX IMVI melanoma) [µM]	TGI (NCI-H460 lung) [µM]	TGI (CAKI-1 renal) [µM]	TGI (SK-MEL-5 melanoma) [µM]	TGI (DU-145 prostate) [µM]	TGI (HS 578T breast) [µM]	TGI (MCF7 breast) [µM]	TGI (PC-3 prostate) [µM]	TGI (BT-549 breast) [µM]
Cc1ccccc1SC(/C=C/NNC1=NC(c2ccccc2)C(c2ccccc2)=NN1)c1ccccc1 (centres undefined)	> 100	45.3	43.2	> 100	> 100	43	87.6	> 100	> 100	> 100	> 100	> 100	> 100	30	> 100	–	–	–	–	–
Oc1ccc(O)c(-n2cccn2)c1	> 100	95.7	> 100	–	> 100	> 100	> 100	> 100	46.2	> 100	> 100	> 100	> 100	33.3	> 100	–	–	–	–	–
OC(c1cc2ccccc2[nH]1)C(O)(c1cc2ccccc2[nH]1)c1cc2ccccc2[nH]1 (centres undefined)	11.4	50	90.3	64.6	> 245	55.1	–	> 245	8.85	44.3	36.2	41.8	51.3	51.9	39.8	–	–	–	–	–
CC(C)(C)OC(=O)NC(Cc1ccccc1)C(=S)N1CCCC1 (centres undefined)	> 100	> 100	> 100	> 100	> 100	> 100	> 100	98	> 100	> 100	> 100	> 100	> 100	> 100	> 100	–	–	–	–	–
C/C(=N\N)C(CN1CCOCC1)C(c1ccccc1)c1c(O)c2ccccc2oc1=O (centres undefined)	> 100	> 100	> 100	> 100	> 100	> 100	> 100	> 100	> 63.5	> 100	> 100	> 31.6	> 100	> 100	> 100	> 100	> 100	> 100	> 100	> 100
CC(=O)NNc1ncc(C(=O)/C=C/c2ccccc2C)s1	–	> 100	> 100	> 100	> 100	> 100	–	> 100	> 100	> 100	> 100	> 100	> 100	> 100	> 100	–	–	–	–	–
CO/S(=N/S(=O)(=O)c1ccccc1)c1ccccc1[N+](=O)[O-] (centres undefined)	> 100	> 100	–	> 100	> 100	> 100	> 100	> 100	> 100	> 100	> 100	> 100	> 100	> 100	> 100	–	–	–	–	–
COc1ccc2c(c1)c1ccc3c(c1n2C)C(=O)C=CC3=O	15.6	34.7	17.4	24.9	> 57.3	22.5	24.3	7.35	19.8	34.6	34.9	14.9	61.2	18.6	43.6	15	28.1	15.5	26.2	10.3
O=CC1=CCCN(CCc2c[nH]c3ccccc23)C1	109	119	140	132	122	41.1	–	> 393	149	128	116	12.2	105	141	129	–	–	–	–	–
CSc1nc2nccnc2c(=O)[nH]1	> 100	> 100	> 100	> 100	> 100	> 100	> 100	> 100	> 100	> 100	> 100	> 100	> 100	> 100	> 100	–	–	–	–	–
[N-]=[N+]=C1C(=O)C2CC3CC1CC2C3 (centres undefined)	> 100	> 100	> 100	> 100	> 100	> 100	> 100	> 100	> 100	> 100	> 100	> 100	> 100	> 100	> 100	–	–	–	–	–

From PubChem BioAssay (NCI)
